Measured values reported in US10851073B2, “Protein tyrosine phosphatase inhibitors and methods of use thereof” (Calico Life Sciences LLC, priority 2019, dated 2020).
Read-outs that look alike come from different tables or passages of the source.

Legend:
[1] = system: B16F10 mouse melanoma cells; assay: B16F10 IFNγ-induced cellular growth inhibition assay; format: cell-based; conditions: B16-F10, with 0.5 ng/mL IFNγ
Summary of the method: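 B16F10 cells grown in DMEM+10% FBS, with or without 0.5 ng/mL final mouse IFNγ, and dosed in triplicate at 100 μM to 0.001 μM final (0.1% DMSO). Confluence imaged every 6 h for 5 days; percent growth inhibition versus DMSO/with-IFNγ control taken once DMSO/no-IFNγ wells exceeded 95% confluence, giving IC50.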

[2] = system: Pan T cells isolated from C57BL6 splenocytes; assay: T cell function assays (IFNγ and TNFα in supernatants); format: cell-based, mouse; conditions: 0.3 μM compound, 3 days; for IFNγ [pg/mL] anti-CD3/CD28 / TNFα [pg/mL] anti-CD3/CD28: anti-CD3/CD28 stimulation
Procedure: Example 231: T Cell Function Assays Pan T cells were isolated from C57BL6 splenocytes using a MACS Pan T cell isolation kit II (Miltenyi Biotec, Auburn, Calif.) according to the manufacturer's instructions. Isolated T cells (200,000 cells/well in a 96 well flat-bottom plate) were cultured in RPMI 1640 supplemented with 10% FBS, […] 2-mercaptoethanol, 100 U/mL penicillin, and 100 μg/mL streptomycin, and incubated with 0.3 μM compound or DMSO in duplicates. After 1 hour, mouse T cell activator CD3/CD28 Dynabeads (ThermoFisher Scientific, Waltham, Mass.) were added at a 1:5 beads to cells ratio to stimulate the T cells for 3 days. T cells with or without compound were incubated in the absence of T cell activator beads to evaluate if compounds nonspecifically stimulate the T cells. After 3 days of stimulation, supernatants were collected and IFNγ and TNFα in supernatants were assessed using an MSD V-plex assay (Meso Scale Discovery, Rockville, Md.).

[3] = target: T1, His tagged PTPN2 (TC45) protein (Homo sapiens, UniProt P17706); assay: Mobility shift assay used to determine potency of PTPN2 inhibitors; format: biochemical; conditions: enzyme 0.5 nM, substrate 2 μM; read-out: PTPN2 MSA IC50
T1 construct: made in house
T1 sequence (P17706 with tags, fused parts or gaps isoform P17706-2): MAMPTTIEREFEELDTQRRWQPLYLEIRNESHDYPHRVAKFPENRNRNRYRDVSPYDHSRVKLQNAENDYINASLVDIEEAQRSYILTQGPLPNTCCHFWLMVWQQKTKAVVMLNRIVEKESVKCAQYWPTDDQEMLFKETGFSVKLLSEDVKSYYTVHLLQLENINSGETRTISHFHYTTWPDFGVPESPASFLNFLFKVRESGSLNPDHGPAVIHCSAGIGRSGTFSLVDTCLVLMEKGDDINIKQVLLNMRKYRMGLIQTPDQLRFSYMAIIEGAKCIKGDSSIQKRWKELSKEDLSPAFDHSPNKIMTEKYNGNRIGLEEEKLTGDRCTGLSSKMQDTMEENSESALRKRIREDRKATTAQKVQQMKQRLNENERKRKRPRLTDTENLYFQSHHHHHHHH
Summary of the method: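 Enzyme (0.5 nM) preincubated with compound (12-point, 1:3 dilution) 10 min at room temperature in 50 mM HEPES pH 7.5, 1 mM EGTA, 10 mM EDTA, 0.01% Tween 20, 2 mM DTT; OG488-labelled phospho-insulin-receptor peptide substrate (2 μM) added for 10 min, then quenched. Microfluidic mobility shift (ex 488/em 530 nm) gave % conversion; IC50 from % inhibition.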

[4] = read-out: B16F10 Growth Inhibition IC50

Structure (SMILES)	IC50 ([1]; read-out: B16F10 GI IC50) [nM]	IC50 [1, 4] [nM]	IFNγ [pg/mL] anti-CD3/CD28 [2] [pg/mL]	TNFα [pg/mL] anti-CD3/CD28 [2] [pg/mL]	IFNγ [pg/mL] no stimulation [2] [pg/mL]	TNFα [pg/mL] no stimulation [2] [pg/mL]	IC50 [3] [nM]
CC(C)CCN[C@@H]1CCc2cc(O)c(N3CC(=O)NS3(=O)=O)c(F)c2C1 (single isomer, unassigned) [Compound 118]	< 1000	110	261.3	159.1	1.8	1.1	1 to 10
O=C1CN(c2c(O)cc3c(c2F)C[C@H](NCCC2CC2)CC3)S(=O)(=O)N1 (single isomer, unassigned) [Compound 133]	< 1000	220	204.1	142.0	1.0	0.8	1 to 10
CC(C)(CCN[C@@H]1CCc2cc(O)c(N3CC(=O)NS3(=O)=O)c(F)c2C1)C(F)(F)F (single isomer, unassigned) [Compound 177]	< 1000	140	168.2	113.7	1.0	0.7	< 1

Further lines, with some results ahead:

IC50 ([1]; read-out: B16F10 GI IC50) [nM]	IC50 [1, 4] [nM]	Structure (SMILES)	IFNγ [pg/mL] anti-CD3/CD28 [2] [pg/mL]	TNFα [pg/mL] anti-CD3/CD28 [2] [pg/mL]	IFNγ [pg/mL] no stimulation [2] [pg/mL]	TNFα [pg/mL] no stimulation [2] [pg/mL]	IC50 [3] [nM]
< 1000	< 50	O=C1CN(c2c(O)cc3c(c2F)C[C@H](NCCCC(F)F)CC3)S(=O)(=O)N1 (single isomer, unassigned) [Compound 199]	212.9	147.8	1.8	1.1	< 1
1000 to 10000	1500	O=C1CN(c2c(O)cc3c(c2F)C[C@@H](NCCC(F)F)CC3)S(=O)(=O)N1 (single isomer, unassigned) [Compound 259]	–	–	–	–	10 to 100
< 1000	180	O=C1CN(c2c(O)cc3c(c2F)C[C@H](NCCC(F)F)CC3)S(=O)(=O)N1 (single isomer, unassigned) [Compound 260]	139.6	100.0	0.8	1.1	1 to 10
